Assays:
Type in all cases: biochemical
[1] = system: Candida rugosa lipase 4 chimera Trx-LIP4/lid2 (lid region residues 63-94 of LIP4 exchanged with that of LIP2; thioredoxin fusion); test: Kinetic parameters of hydrolysis of cholesteryl linoleate by Trx-LIP4/lid2; conditions: 37° C., pH 7.0; Trx-LIP4/lid2 86 nM; average of three independent experiments
Text: (§1) Construction of expression vectors The E. coli expression vectors pET23a-LIP4-S19 and pET23a-trx-LIP4-S19 were constructed as described in Tang et al. (2000) Protein Exp. Purif. 20: 308-313. Open-reading frames of LIP1, LIP2, LIP3, and LIP5 without the leader sequence were obtained by reverse transcription-polymerase chain reaction (RT-PCR). See Longhi et al. (1992) Biochim. Biophy. […] The chimeric DNA sequences were constructed by replacing the SphI(184)-BstXI(304) restriction DNA fragment of LIP4 with the corresponding fragments of LIP1, LIP2, LIP3, or LIP5, respectively. The resulting sequences encode mature chimeric C. rugosa lipases, denoted as TrX-LIP4/lid1, TrX-LIP4/lid2, TrX-LIP4/lid3, and TrX-LIP4/lid5, and were confirmed by DNA sequencing.
(§2) Preparation of recombinant LIP4 from E. coli. E. coli strain AD494(DE3) (Novagen, Milwaukee, Wis.) harboring recombinant plasmid was grown overnight at 37° C. in Luria-Bertani (LB) broth supplemented with 50 μg/mL ampicillin and 15 μg/mL kanamycin. The cells were then diluted 20-fold into fresh medium and incubated with shaking at 25° C. After adding IPTG to give a final concentration of 0.05 mM, the cells were incubated at 10° C. until OD600 reached 1.0.
(§3) Purification of recombinant LIP4. After induction, the AD494(DE3) transformants were harvested by centrifugation at 4000 g and 4° C. for 10 min. […]

[2] = system: Candida rugosa lipase 4 chimera Trx-LIP4/lid1 (lid region residues 63-94 of LIP4 exchanged with that of LIP1; thioredoxin fusion); test: Kinetic parameters of hydrolysis of cholesteryl linoleate by Trx-LIP4/lid1; conditions: 37° C., pH 7.0; Trx-LIP4/lid1 11 nM; average of three independent experiments
Text: as §1, §2, §3

[3] = system: Candida rugosa lipase 4 chimera Trx-LIP4/lid5 (lid region residues 63-94 of LIP4 exchanged with that of LIP5; thioredoxin fusion); test: Kinetic parameters of hydrolysis of cholesteryl linoleate by Trx-LIP4/lid5; conditions: 37° C., pH 7.0; Trx-LIP4/lid5 66 nM; average of three independent experiments
Text: as §1, §2, §3

[4] = system: Candida rugosa lipase 4 chimera Trx-LIP4/lid3 (lid region residues 63-94 of LIP4 exchanged with that of LIP3; thioredoxin fusion); test: Kinetic parameters of hydrolysis of cholesteryl linoleate by Trx-LIP4/lid3; conditions: 37° C., pH 7.0; Trx-LIP4/lid3 58 nM; average of three independent experiments
Text: as §1, §2, §3

[5] = target: Candida rugosa lipase 4 (LIP4), native, recombinant (Diutina rugosa, UniProt P32948); test: Kinetic parameters of hydrolysis of cholesteryl linoleate by LIP4; conditions: 37° C., pH 7.0; LIP4 39 nM; average of three independent experiments
Text: as §1, §2, §3

Sequence of Candida rugosa lipase 4 (LIP4), native, recombinant (P32948 3-549, looked up, natural form): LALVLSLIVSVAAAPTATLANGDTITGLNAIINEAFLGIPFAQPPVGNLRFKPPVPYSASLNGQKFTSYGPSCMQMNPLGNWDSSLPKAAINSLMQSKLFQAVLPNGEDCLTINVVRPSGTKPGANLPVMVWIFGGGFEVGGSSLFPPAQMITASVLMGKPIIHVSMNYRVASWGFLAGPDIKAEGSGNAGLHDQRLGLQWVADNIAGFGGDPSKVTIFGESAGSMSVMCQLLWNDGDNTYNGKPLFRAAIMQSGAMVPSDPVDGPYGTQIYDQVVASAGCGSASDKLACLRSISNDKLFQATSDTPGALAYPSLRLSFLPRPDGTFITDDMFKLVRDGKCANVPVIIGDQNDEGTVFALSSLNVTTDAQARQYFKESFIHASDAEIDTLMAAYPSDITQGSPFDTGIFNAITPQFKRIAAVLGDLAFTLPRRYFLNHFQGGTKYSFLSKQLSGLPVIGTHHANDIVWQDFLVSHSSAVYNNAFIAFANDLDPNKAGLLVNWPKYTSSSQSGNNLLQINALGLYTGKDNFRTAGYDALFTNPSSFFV

`CCCCC/C=C\C/C=C\CCCCCCCC(=O)O[C@H]1CC[C@@]2(C)C(=CC[C@H]3[C@@H]4CC[C@H]([C@H](C)CCCC(C)C)[C@@]4(C)CC[C@@H]32)C1` [cholesteryl linoleate] was tested, and the Km [1] was 74 ± 3 µM, the Vmax [1] was 1851 ± 24 10^−3 μmol/min/mg and the Km [2] was 103 ± 5 µM. The Vmax [2] was 28 ± 1 10^−3 μmol/min/mg, the Km [3] was 34 ± 1 µM and the Vmax [3] was 70 ± 4.8 10^−3 μmol/min/mg. The Km [4] was 46 ± 1 µM, the Vmax [4] was 231 ± 14 10^−3 μmol/min/mg and the Km [5] was 41 ± 5 µM.
